How the values were obtained:
DNMT1/3a/3b = experiment: Enzyme kinetic study, overall statements on DNMT1/3a/3b activities; assay type: biochemical
Description: (§3) For the DNMT1 activity assay, the substrate solution, 0.001 mg/ml Poly(dI-dC):Poly(dI-dC) in 50 mM Tris-HCl, pH 7.5, 50 mM NaCl, 5 mM EDTA, 5 mM DTT, 1 mM PMSF, 5% glycerol, 0.01% Brij35, 1% DMSO was used. For the DNMT3a/3b activity assay, 0.0075 mg/ml Lambda DNA in 50 mM Tris-HCl, pH 7.5, 50 mM NaCl, 5 mM EDTA, 5 mM DTT, 1 mM PMSF, 5% glycerol, 1% DMSO, was used. The indicated DNMT1, DNMT3a, or DNMT3b was added to the appropriate substrate solution and gently mixed. […] The mixtures were first incubated for 15 min, then ^3H-SAM was added to the reaction mixture to initiate the reaction, and the mixture was incubated for 60 min at 30° C. Following incubation, the reaction mixture was finally transferred to filter-paper for detection of radioactivity counts.

[1] = Metabolite profiling of plasma, urine, feces after intravenous dose; assay type: in vivo, rats
Description: (§1) Nine male Sprague Dawley rats (Group 1) were designated for the pharmacokinetic phase, 3 male Sprague Dawley rats (Group 2) for the excretion mass balance phase, and 7 male Sprague Dawley rats (Group 3) and 9 male Long Evans rats (Group 4) for the tissue distribution phase. All animals received a single intravenous dose of [^14C]-25HC3S at 10 mg/kg and a target radioactivity of 225 µCi/kg. Blood samples were collected from all Group 1 animals at approximately 0.083, 0.25, 0.5, 1, 2, 4, 8, 12, 24, 48, and 72 hours post-dose. Urine and feces were collected from all Group 2 animals periodically through 168 hours post-dose. […] Following blood collection, animals were euthanized by CO2 inhalation and carcasses frozen in a dry ice/hexane bath for processing by quantitative whole body autoradiography. Whole blood, plasma, urine, feces, cage rinse, and cage wash were analyzed for total radioactivity by liquid scintillation counting.

DNMT1 = DNMT1 (Homo sapiens, UniProt P26358); experiment: DNMT1 activity assay (3H-SAM, filter-paper radioactivity); assay type: biochemical
Chain of DNMT1 (P26358 whole entry, species assumed): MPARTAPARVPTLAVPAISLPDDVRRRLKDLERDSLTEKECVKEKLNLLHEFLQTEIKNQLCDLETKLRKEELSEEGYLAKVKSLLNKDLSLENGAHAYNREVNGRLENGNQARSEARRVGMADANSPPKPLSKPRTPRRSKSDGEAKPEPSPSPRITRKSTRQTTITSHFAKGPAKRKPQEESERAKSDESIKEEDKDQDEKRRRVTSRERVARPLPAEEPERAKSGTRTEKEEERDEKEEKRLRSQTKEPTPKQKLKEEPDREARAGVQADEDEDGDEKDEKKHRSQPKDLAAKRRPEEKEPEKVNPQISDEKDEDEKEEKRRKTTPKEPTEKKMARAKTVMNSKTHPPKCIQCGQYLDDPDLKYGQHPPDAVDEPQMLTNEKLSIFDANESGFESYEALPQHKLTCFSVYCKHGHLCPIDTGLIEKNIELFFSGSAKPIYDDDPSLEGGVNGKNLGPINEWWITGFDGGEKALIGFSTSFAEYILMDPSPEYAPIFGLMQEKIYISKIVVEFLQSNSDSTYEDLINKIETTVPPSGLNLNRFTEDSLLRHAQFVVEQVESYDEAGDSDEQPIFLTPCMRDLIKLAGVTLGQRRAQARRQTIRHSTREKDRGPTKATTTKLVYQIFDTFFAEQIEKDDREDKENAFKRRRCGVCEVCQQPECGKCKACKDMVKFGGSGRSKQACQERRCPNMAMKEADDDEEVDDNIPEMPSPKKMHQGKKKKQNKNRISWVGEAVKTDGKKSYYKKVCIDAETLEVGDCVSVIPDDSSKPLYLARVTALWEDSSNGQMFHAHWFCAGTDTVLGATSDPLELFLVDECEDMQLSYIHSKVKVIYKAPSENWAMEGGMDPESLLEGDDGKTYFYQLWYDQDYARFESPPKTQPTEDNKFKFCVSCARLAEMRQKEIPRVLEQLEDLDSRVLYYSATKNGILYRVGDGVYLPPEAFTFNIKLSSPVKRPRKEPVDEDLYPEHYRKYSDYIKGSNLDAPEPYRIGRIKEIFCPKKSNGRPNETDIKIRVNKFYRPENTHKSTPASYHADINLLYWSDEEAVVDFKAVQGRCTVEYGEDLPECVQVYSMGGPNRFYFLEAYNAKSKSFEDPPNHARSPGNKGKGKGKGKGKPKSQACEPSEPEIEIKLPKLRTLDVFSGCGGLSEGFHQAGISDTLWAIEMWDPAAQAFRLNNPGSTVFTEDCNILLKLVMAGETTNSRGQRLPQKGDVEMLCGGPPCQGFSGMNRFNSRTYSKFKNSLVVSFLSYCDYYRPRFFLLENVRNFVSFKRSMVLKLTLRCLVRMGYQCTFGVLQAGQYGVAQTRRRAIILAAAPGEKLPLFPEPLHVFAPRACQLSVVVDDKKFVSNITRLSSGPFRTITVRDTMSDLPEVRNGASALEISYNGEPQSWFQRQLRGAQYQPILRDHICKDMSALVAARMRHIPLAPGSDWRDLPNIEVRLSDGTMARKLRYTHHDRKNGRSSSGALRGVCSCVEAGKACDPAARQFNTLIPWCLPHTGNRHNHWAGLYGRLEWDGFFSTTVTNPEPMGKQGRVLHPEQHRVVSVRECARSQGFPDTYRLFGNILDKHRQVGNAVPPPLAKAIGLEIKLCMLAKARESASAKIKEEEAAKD
Description: as §3

[2] = Metabolite profiling of plasma and feces after oral dose; assay type: in vivo, rats; conditions: oral 75 mg/kg
Source text: Radiolabeled components in plasma and feces extracts were profiled and identified using radio-high performance liquid chromatography (HPLC) and high performance liquid chromatography/mass spectrometry (HPLC/MS) methods.

[3] = Plasma pharmacokinetics of radioactivity after single intravenous dose; assay type: in vivo, male Sprague Dawley rats; conditions: single intravenous (bolus) dose 10 mg/kg
Source text: (§2) The objectives of this study were to determine the plasma pharmacokinetics of [4-^14C]-25HC3S-derived radioactivity in male Sprague Dawley rats, determine the routes of elimination and excretion mass balance of [4-^14C]-25HC3S-derived radioactivity in male Sprague Dawley rats, determine the tissue distribution and tissue pharmacokinetics of [4-^14C]-25HC3S-derived radioactivity using quantitative whole body autoradiography methods in male Sprague Dawley and Long Evans rats following a single intravenous (bolus) dose, and to provide plasma, urine, and fecal homogenate samples for metabolite profiling of [4-^14C]-25HC3S-derived radioactivity.
as §1, with “µCi/kg.” for “µCi/kg. Blood samples were collected from all Group 1 animals at approximately 0.083, 0.25, 0.5, 1, 2, 4, 8, 12, 24, 48, and 72 hours post-dose. Urine and feces were collected from all Group 2 animals periodically through 168 hours post-dose.”

[4] = Excretion mass balance after single intravenous dose; assay type: in vivo, male Sprague Dawley rats; conditions: intravenous 10 mg/kg, over 168 hours
Source text: as §2
as §1, with “µCi/kg.” for “µCi/kg. Blood samples were collected from all Group 1 animals at approximately 0.083, 0.25, 0.5, 1, 2, 4, 8, 12, 24, 48, and 72 hours post-dose. Urine and feces were collected from all Group 2 animals periodically through 168 hours post-dose.”

[5] = Tissue distribution by quantitative whole body autoradiography after intravenous dose; assay type: in vivo, male Sprague Dawley rats; conditions: intravenous 10 mg/kg
Source text: as §2, §1

[6] = Tissue distribution after intravenous dose in pigmented rats; assay type: in vivo, male Long Evans rats; conditions: intravenous 10 mg/kg, first 168 hours post-dose
Source text: as §2
as §1, with “µCi/kg.” for “µCi/kg. Blood samples were collected from all Group 1 animals at approximately 0.083, 0.25, 0.5, 1, 2, 4, 8, 12, 24, 48, and 72 hours post-dose. Urine and feces were collected from all Group 2 animals periodically through 168 hours post-dose.”

[7] = Plasma pharmacokinetics of radioactivity after single oral (gavage) dose; assay type: in vivo, rats; conditions: single oral (gavage) dose 75 mg/kg
Description: The terminal elimination phase T½ was 27.3 hours.

[8] = Tissue distribution by quantitative whole body autoradiography after oral dose; assay type: in vivo, male Sprague Dawley rats; conditions: oral 75 mg/kg

C[C@H](CCCC(C)(C)O)[C@H]1CC[C@H]2[C@@H]3CC=C4C[C@@H](OS(=O)(=O)O)CC[C@]4(C)[C@H]3CC[C@]12C [25HC3S, 25-hydroxycholesterol-3-sulfate]
effect on enzymatic activities (DNMTs) (DNMT1/3a/3b): potent inhibitors of DNMTs | IC50 (DNMT1/3a/3b; DNMT-1, 3a, 3b, read-out: IC50s (kinetic study)): 1 to 10 µM | % of dose in feces ([1]; pools 0 to 48 hours postdose): 2 % of dose | share of the exposure (AUC) to 25HC3S related radioactivity in plasma ([1]; up to 1 hour postdose): approximately 54%

C[C@H](CCCC(C)(C)O)[C@H]1CC[C@H]2[C@@H]3CC=C4C[C@@H](O)CC[C@]4(C)[C@H]3CC[C@]12C [25HC, 25-Hydroxycholesterol]
activates DNMT-1 activity (DNMT1): 8 fold | detection in plasma, urine, or feces samples [1]: Neither desmosterol sulfate nor 25-hydroxycholesterol was detected | relative observed intensity (ROI) in plasma ([2]; 2 hour postdose plasma): 37% | % of total dose in feces ([2]; pools 0 to 168 hours postdose): 1.9 % of total dose

CC(CO)CCC[C@@H](C)[C@H]1CC[C@H]2[C@@H]3CC=C4C[C@@H](OS(=O)(=O)O)CC[C@]4(C)[C@H]3CC[C@]12C (stereo partly drawn) [27HC3S, 27-hydroxycholesterol-3-sulfate]
effect on enzymatic activities (DNMTs) (DNMT1/3a/3b): potent inhibitors of DNMTs

C[C@@H](CO)CCC[C@@H](C)[C@H]1CC[C@H]2[C@@H]3CC=C4C[C@@H](O)CC[C@]4(C)[C@H]3CC[C@]12C [27HC, 27-Hydroxycholesterol, reference compound]
effect on enzymatic activities (DNMTs) (DNMT1/3a/3b): had no effect on other enzymes

CC(C)CCC[C@@H](C)[C@H]1CC[C@H]2[C@@H]3CC=C4C[C@@H](OS(=O)(=O)O)CC[C@]4(C)[C@H]3CC[C@]12C [Xol3S, Cholesterol 3-Sulfate, reference compound]
effect on enzymatic activities (DNMTs) (DNMT1/3a/3b): did not significantly affect enzymatic activities

CC(C)CCC[C@@H](C)[C@H]1CC[C@H]2[C@@H]3CC=C4C[C@@H](O)CC[C@]4(C)[C@H]3CC[C@]12C [Xol, Cholesterol]
effect on enzymatic activities (DNMTs) (DNMT1/3a/3b): did not significantly affect enzymatic activities

C[C@H](CCCC(C)(C)O)[C@H]1CC[C@H]2[C@@H]3CC=C4[14CH2][C@@H](OS(=O)(=O)O)CC[C@]4(C)[C@H]3CC[C@]12C [[4-^14C]-25HC3S]
terminal elimination phase T½ [3]: 26.6 h | recovered radioactivity in feces [4]: 83.0% | AUClast in the liver [5]: ≤ 364,000 h.ng/g | plasma:whole blood AUClast ratio [5]: 0.79 | tissue distribution of radioactivity [5]: broadly distributed and detected by quantitative whole body autoradiography in all tissues except the eye (lens) | tissue:plasma ratio, liver ([5]; calculated using AUClast): 11.4 | tissue:plasma ratio, small intestine (wall) ([5]; calculated using AUClast): 7.44 | plasma or whole blood concentrations versus Sprague Dawley rats [6]: no substantial difference in plasma or whole blood concentrations | plasma AUClast [7]: 96,400 h•ng equiv./g | Uveal tract and brain concentrations [8]: approximately 1000 ng equiv./g | plasma:whole blood AUClast ratio [8]: 1.12 | tissue Tmax [8]: ≤ 6 hours postdose | tissue distribution of radioactivity [8]: broadly distributed and detected by quantitative whole body autoradiography in all tissues except the eye (lens) | whole blood AUClast [8]: 127,000 h•ng equiv./g | tissue:plasma ratio, adrenal gland ([8]; calculated using AUClast): 6.64 | tissue:plasma ratio, liver ([8]; calculated using AUClast): 6.96 | tissue:plasma ratio, small intestine (wall) ([8]; calculated using AUClast): 15.4

desmosterol sulfate
detection in plasma, urine, or feces samples [1]: Neither desmosterol sulfate nor 25-hydroxycholesterol was detected
